# Experimental data from ChEMBL document CHEMBL1629598, “Statistical model to evaluate in vivo activities of antimalarial drugs in a Plasmodium cynomolgi-macaque model for Plasmodium vivax malaria” (2009).
# The source made the active and inactive calls. The rule behind the calls is not given here.
# How the values were obtained:
# [1] = test system: Plasmodium cynomolgi; experiment: Antimalarial activity against blood-stage of Plasmodium cynomolgi M infected in rhesus macaque assessed as reduction of peak parasitemia days at 3 to 27 mg/kg, po qd for 4 consecutive days; assay type: functional; details: dose mg/kg 3-27
# [2] = test system: Plasmodium cynomolgi; experiment: Antimalarial activity against blood-stage of Plasmodium cynomolgi M infected in rhesus macaque assessed as reduction of parasitemia days at 9 mg/kg, po qd after 4 to 5 days; assay type: functional, organism-based; design: dose 9 mg/kg
# [3] = test system: Plasmodium cynomolgi; experiment: Antimalarial activity against blood-stage of Plasmodium cynomolgi M infected in rhesus macaque assessed as reduction of peak parasitemia days at 9 mg/kg, po qd for 4 consecutive days; assay type: functional
# [4] = test system: Plasmodium cynomolgi; experiment: Antimalarial activity against blood-stage of Plasmodium cynomolgi M infected in rhesus macaque assessed as reduction of peak parasitemia days at 3 mg/kg, po qd for 4 consecutive days; assay type: functional
# [5] = test system: Plasmodium cynomolgi; experiment: Antimalarial activity against blood-stage of Plasmodium cynomolgi M infected in rhesus macaque assessed as reduction of peak parasitemia days at 27 mg/kg, po qd for 4 consecutive days; assay type: functional
# [6] = test system: Plasmodium cynomolgi; experiment: Antimalarial activity against blood-stage of Plasmodium cynomolgi M infected in rhesus macaque assessed as reduction of parasitemia days at 27 mg/kg, po qd after 4 to 5 days; assay type: functional, organism-based; design: dose 27 mg/kg
# [7] = test system: Plasmodium cynomolgi; experiment: Antimalarial activity against blood-stage of Plasmodium cynomolgi M infected in rhesus macaque assessed as reduction of parasitemia days at 3 mg/kg, po qd after 4 to 5 days; assay type: functional, organism-based; design: dose 3 mg/kg
# [8] = test system: Plasmodium cynomolgi; experiment: Antimalarial activity against blood-stage of Plasmodium cynomolgi M infected in rhesus macaque assessed as reduction of parasitemia at 3 to 27 mg/kg, po qd for 8 consecutive days (reference value: 3%); assay type: functional; design: scale not given: the % may be the effect or the level left; details: dose mg/kg 3-27
# [9] = test system: Plasmodium cynomolgi; experiment: Antimalarial activity against blood-stage of Plasmodium cynomolgi M infected in rhesus macaque assessed as reduction of parasitemia administered intramuscularly twice daily for 8 consecutive days measured on day 28 (reference value: 6.1%); assay type: functional; design: scale not given: the % may be the effect or the level left
# [10] = test system: Plasmodium cynomolgi; experiment: Antimalarial activity against blood-stage of Plasmodium cynomolgi M infected in rhesus macaque assessed as reduction of peak parasitemia days administered intramuscularly twice daily measured after 2nd dose (reference value: 3.5%); assay type: functional
# [11] = test system: Plasmodium cynomolgi; experiment: Antimalarial activity against blood-stage of Plasmodium cynomolgi M infected in rhesus macaque assessed as reduction of peak parasitemia administered intramuscularly twice daily measured on day 3; assay type: functional, organism-based
# [12] = test system: Plasmodium cynomolgi; experiment: Antimalarial activity against blood-stage of Plasmodium cynomolgi M infected in rhesus macaque assessed as reduction of parasitemia at 40 mg/kg, po qd for 8 consecutive days (reference value: 4.7%); assay type: functional; design: scale not given: the % may be the effect or the level left
# [13] = test system: Plasmodium cynomolgi; experiment: Antimalarial activity against blood-stage of Plasmodium cynomolgi M infected in rhesus macaque assessed as reduction of peak parasitemia days at 40 mg/kg, po qd for 8 consecutive days; assay type: functional
# [14] = test system: Plasmodium cynomolgi; experiment: Antimalarial activity against blood-stage of Plasmodium cynomolgi M infected in rhesus macaque assessed as complete cure at 40 mg/kg, po qd after 4 days; assay type: functional, organism-based; design: dose 40 mg/kg
structure (smiles),measurement,setting,value
C/C(=C1\CCOC(=O)S1)N(C=O)CCCCCCCCCCCCN(C=O)/C(C)=C1/CCOC(=O)S1,Time,[1],1.9 days
same,Activity,[2],Active
same,Time,[3],1.7 days
same,Time,[4],2 days
same,Time,[5],1.6 days
same,Activity,[6],Active
same,Activity,[7],Active
same,Activity,[8],0.6%
C[N+]1(CCCCCCCCCCCCCCCC[N+]2(C)CCCC2)CCCC1.[Br-].[Br-],Activity,[9],0.5%
same,Time,[10],0.7 days
same,Activity,[11],Active
COCC/C(SC(=O)c1ccc(CN2CCOCC2)cc1)=C(\C)N(C=O)CCCCCCCCCCCCN(C=O)/C(C)=C(/CCOC)SC(=O)c1ccc(CN2CCOCC2)cc1.O=C(O)C(O)C(O)C(=O)O,Activity,[12],1.5%
same,Time,[13],1 days
same,Activity,[14],Active
